These results are taken from patent US7579356B2, “Thia-tetraazaacenaphthylene kinase inhibitors” (Janssen Pharmaceutica NV, priority 2005, dated 2009).

The target in one assay is T1, EGFR (Homo sapiens, UniProt P00533).
T1 construct: The intracellular portion of EGFR started at nucleotide 2189 (corresponding to amino acid 667) and ended at the termination codon; made in house; host or cells: Sf9 insect cells (baculovirus)
Description: EGFR Kinase Assay. It is filed as biochemical. The following applies: for IC50: GST-EGFR, ATP 5 μM; for inhibition at 2 µM: test concentration of 2 μM, compounds without an IC50, read-out: EGFR inhibition in percent. Summed up:
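Potency came from triplicate 16-point half-log titrations starting at 200 uM, with IC50 fitted from % inhibition against log concentration, or % inhibition at 2 μM otherwise. Reaction: Sf9-made GST–EGFR cytoplasmic region (aa 667 onward), biotin-polyGluTyr, 5 μM ATP with 33P tracer, pH 8.0 Tris/Mg/vanadate/DTT, 30 °C for 1 h; captured on streptavidin Flashplates and counted.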

Another assay has as its target T2, HER-2 (Homo sapiens, UniProt P04626).
T2 construct: His6 with thrombin site (N); purchased Proqinase (Freiburg, Germany)
Description: HER-2 Kinase Assay. Format: biochemical. The following applies: for IC50: value in parentheses; for inhibition at 1 µM: test concentration of 1 μM. Summed up:
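Read-out was scintillation counting of 33P incorporated into biotinylated polyGluTyr captured on streptavidin plates. Reactions ran 1 h at 30 °C with GST-fused HER-2 residues 679–1255, 1 μM ATP, Mn2+ and Mg2+ at pH 7.5; data given as percent inhibition at 1 μM, with IC50 where determined.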

The subject of a further assay is N87 cells. Nature of the assay: In Vivo Models - Inhibition of Tumor Growth, N87. The following applies: Mus musculus, po, 720 h, 100 mg/kg, oral daily for 30 days, athymic mice; read-out: percent inhibition N87. The protocol: In Vivo Models—Inhibition of Tumor Growth
The ability of test compounds to inhibit unregulated growth of human tumor cells in vivo was evaluated by implanting human tumor cells into the hindflank of athymic mice, administering a test compound and then quantifying any change in tumor size.
Human epidermoid A431 carcinoma, N87 cells and BT474 cells were implanted subcutaneously into the hindflank of female athymic mice (Charles River) and allowed to grow for 6-10 days. After a measurable tumor was established (as determined by baseline caliper measurement), the animal was administered an oral dose of the test compound daily for a period of 30 days. Tumor size was measured every five days and the degree of inhibition was determined by comparing drug-treated animals to vehicle-treated animals.
Variations of this method are intended to include intraperitoneal injection or intravenous infusion as the route of administration and administration of the test compound either alone or in a combination therapy.
The inhibition of tumor growth values are shown in Table 8 at various test concentrations, as indicated. For compounds with multiple values at one test concentration, each value represents a separate assay result.

The target in the next assay is T3, c-Src kinase (human) (Homo sapiens, UniProt P12931).
T3 construct: purchased Upstate Biotechnology, Lake Placid, N.Y
Description: c-Src Kinase Assay. The following applies: test concentration of 2 μM; multiple values are separate assay results. It is filed as biochemical. Summed up:
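Inhibition was read as 33P incorporation, counted on P30 filtermats, after a 40 min, 30° C reaction. Human c-Src acted on 100 μM Cdc2 peptide with 5 μM ATP (final), pH 7.0 MOPS/MgCl2. Values are percent inhibition at 2 μM compound, or IC50 where determined.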

The next assay addresses T4, Lyn kinase (human) (Homo sapiens, UniProt P07948).
T4 construct: purchased Upstate Biotechnology, Lake Placid, N.Y
Nature of the assay: Lyn Kinase Assay. It is filed as biochemical. The following applies: test concentration of 2 μM. A digest of the protocol:
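Radiometric filter-binding assay with recombinant human Lyn, poly(Glu,Tyr) substrate (0.1 mg/mL final), 5 μM ATP plus γ-33P-ATP in MOPS pH 7.5/Mg acetate buffer; 40 min at 30 °C, stopped with phosphoric acid, counted by scintillation. Reported as percent inhibition at 2 μM, with IC50 (μM) where determined.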

T1 sequence (P00533 669-1210 limits assumed): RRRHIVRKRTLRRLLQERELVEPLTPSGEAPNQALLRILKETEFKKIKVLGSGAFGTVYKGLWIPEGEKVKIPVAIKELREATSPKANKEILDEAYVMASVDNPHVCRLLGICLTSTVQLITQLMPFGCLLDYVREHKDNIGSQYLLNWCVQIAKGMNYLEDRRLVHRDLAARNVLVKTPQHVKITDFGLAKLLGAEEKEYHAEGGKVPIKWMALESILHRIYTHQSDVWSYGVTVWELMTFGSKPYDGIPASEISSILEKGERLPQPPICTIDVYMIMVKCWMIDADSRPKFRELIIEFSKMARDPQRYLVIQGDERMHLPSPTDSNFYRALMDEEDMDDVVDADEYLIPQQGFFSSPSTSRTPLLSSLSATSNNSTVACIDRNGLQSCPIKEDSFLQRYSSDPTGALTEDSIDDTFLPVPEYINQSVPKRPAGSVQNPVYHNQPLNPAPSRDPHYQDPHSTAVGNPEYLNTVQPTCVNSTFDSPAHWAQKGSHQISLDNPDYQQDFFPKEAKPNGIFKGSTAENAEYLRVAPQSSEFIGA
T3 sequence (P12931 whole entry): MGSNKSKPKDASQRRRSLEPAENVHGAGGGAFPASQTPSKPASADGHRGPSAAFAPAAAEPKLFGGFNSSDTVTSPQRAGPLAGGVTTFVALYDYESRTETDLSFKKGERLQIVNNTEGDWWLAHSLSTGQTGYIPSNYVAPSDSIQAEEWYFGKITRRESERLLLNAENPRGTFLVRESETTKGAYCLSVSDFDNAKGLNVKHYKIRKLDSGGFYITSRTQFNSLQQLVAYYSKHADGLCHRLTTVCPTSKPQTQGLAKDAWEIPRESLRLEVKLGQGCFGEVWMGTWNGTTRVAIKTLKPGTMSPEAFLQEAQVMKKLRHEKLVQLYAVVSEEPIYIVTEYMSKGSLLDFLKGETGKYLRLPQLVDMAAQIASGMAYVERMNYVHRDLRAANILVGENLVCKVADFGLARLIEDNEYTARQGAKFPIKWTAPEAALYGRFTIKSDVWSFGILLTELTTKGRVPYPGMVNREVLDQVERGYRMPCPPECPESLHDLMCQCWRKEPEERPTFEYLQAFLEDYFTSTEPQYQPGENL
T4 sequence (P07948 whole entry): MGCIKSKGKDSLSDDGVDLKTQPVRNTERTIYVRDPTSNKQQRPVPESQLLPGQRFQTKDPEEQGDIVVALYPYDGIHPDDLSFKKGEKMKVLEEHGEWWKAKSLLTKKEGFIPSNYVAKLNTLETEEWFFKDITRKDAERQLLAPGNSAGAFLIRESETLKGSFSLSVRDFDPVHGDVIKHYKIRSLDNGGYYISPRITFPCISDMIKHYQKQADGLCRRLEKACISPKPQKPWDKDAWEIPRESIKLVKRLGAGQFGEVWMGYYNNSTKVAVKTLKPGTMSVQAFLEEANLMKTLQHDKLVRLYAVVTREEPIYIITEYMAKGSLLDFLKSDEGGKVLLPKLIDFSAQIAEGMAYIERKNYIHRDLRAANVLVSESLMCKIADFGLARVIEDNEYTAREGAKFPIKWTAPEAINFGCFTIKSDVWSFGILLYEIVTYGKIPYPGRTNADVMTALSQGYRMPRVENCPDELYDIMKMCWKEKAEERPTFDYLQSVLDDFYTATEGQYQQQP
T2 sequence (P04626 679-1255): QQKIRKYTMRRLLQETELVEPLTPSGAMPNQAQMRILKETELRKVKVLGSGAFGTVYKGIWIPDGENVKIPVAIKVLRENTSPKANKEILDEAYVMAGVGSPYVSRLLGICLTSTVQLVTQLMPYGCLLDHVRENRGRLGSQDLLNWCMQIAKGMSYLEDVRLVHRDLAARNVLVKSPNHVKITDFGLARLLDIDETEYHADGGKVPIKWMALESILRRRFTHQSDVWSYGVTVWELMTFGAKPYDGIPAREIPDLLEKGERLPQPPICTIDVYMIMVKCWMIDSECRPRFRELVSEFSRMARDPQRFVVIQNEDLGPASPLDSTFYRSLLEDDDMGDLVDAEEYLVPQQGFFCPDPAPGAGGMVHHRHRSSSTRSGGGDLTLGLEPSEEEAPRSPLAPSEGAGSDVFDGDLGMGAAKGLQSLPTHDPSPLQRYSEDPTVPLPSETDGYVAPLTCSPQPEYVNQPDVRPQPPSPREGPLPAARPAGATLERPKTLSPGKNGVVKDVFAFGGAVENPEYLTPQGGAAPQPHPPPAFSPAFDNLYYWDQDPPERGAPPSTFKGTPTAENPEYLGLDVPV

For the compound `CN(C)c1cc(NC(=O)c2sc3ncnc4c3c2NC(=O)N4c2ccc(Oc3ccccc3)cc2)ccc1CN1CCOCC1` [Cpd 257, 4-oxo-5-(4-phenoxy-phenyl)-4,5-dihydro-3H-1-thia-3,5,6,8-tetraaza-acenaphthylene-2-carboxylic acid (3-dimethylamino-4-morpholin-4-ylmethyl-phenyl)-amide], the results for the IC50 on EGFR and at HER-2 were 96 nM and 24 nM, respectively. The inhibition in vivo at 100 mg/kg with N87 cells worked out at 71.2%.
For `Cc1cc(NC(=O)c2sc3ncnc4c3c2NC(=O)N4c2ccc(Oc3ccccc3)cc2)ccc1CN1CCOCC1` [Cpd 232, 4-oxo-5-(4-phenoxy-phenyl)-4,5-dihydro-3H-1-thia-3,5,6,8-tetraaza-acenaphthylene-2-carboxylic acid (3-methyl-4-morpholin-4-ylmethyl-phenyl)-amide], in that order: 41 nM, 28 nM and 30.3%.
For `O=C(Nc1ccc(CN2CCOCC2)c(O)c1)c1sc2ncnc3c2c1NC(=O)N3c1ccc(Oc2ccccc2)cc1` [Cpd 262, 4-oxo-5-(4-phenoxy-phenyl)-4,5-dihydro-3H-1-thia-3,5,6,8-tetraaza-acenaphthylene-2-carboxylic acid (3-hydroxy-4-morpholin-4-ylmethyl-phenyl)-amide], in that order: 35 nM, 19 nM and 70.5%.
On to `NC1CCN(Cc2ccc(NC(=O)c3sc4ncnc5c4c3NC(=O)N5c3ccc(Oc4ccccc4)cc3)cc2)CC1` [Cpd 259, 4-oxo-5-(4-phenoxy-phenyl)-4,5-dihydro-3H-1-thia-3,5,6,8-tetraaza-acenaphthylene-2-carboxylic acid [4-(4-amino-piperidin-1-ylmethyl)-phenyl]-amide], for which the IC50 at EGFR was determined as 21 nM; on HER-2, 11 nM. Also, the inhibition in vivo at 100 mg/kg in the assay on N87 cells was 46.8%.
For the compound `O=C(Nc1ccc(CN2CCC(F)(F)CC2)cc1)c1sc2ncnc3c2c1NC(=O)N3c1ccc(Oc2ccccc2)cc1` [Cpd 263, 4-oxo-5-(4-phenoxy-phenyl)-4,5-dihydro-3H-1-thia-3,5,6,8-tetraaza-acenaphthylene-2-carboxylic acid [4-(4,4-difluoro-piperidin-1-ylmethyl)-phenyl]-amide], the inhibition at 2 µM on EGFR amounted to 83%. Moreover, at HER-2, the IC50 was determined as 523 nM. In addition, in the assay on N87 cells, the inhibition in vivo at 100 mg/kg is 18.1%.
`COc1cc(NC(=O)c2sc3ncnc4c3c2NC(=O)N4c2ccc(F)cc2Cl)ccc1OCCN1CCCCC1` [Cpd 144, 5-(2-chloro-4-fluoro-phenyl)-4-oxo-4,5-dihydro-3H-1-thia-3,5,6,8-tetraaza-acenaphthylene-2-carboxylic acid [3-methoxy-4-(2-piperidin-1-yl-ethoxy)-phenyl]-amide] displayed an IC50 at EGFR of 330 nM. For the same compound, the inhibition at 2 µM came to 67% on c-Src kinase (human) and 84% against Lyn kinase (human). In addition, the inhibition at 1 µM against HER-2 stood at 18%.
`COc1cc(NC(=O)c2sc3ncnc4c3c2NC(=O)N4c2ccc(Cc3ccccc3)cc2)ccc1OCCN1CCCCC1` [Cpd 163, 5-(4-benzyl-phenyl)-4-oxo-4,5-dihydro-3H-1-thia-3,5,6,8-tetraaza-acenaphthylene-2-carboxylic acid [3-methoxy-4-(2-piperidin-1-yl-ethoxy)-phenyl]-amide]: the half-maximal inhibitory concentration (IC50) turned out to be 18 nM on EGFR and 278 nM at HER-2. The inhibition at 2 µM against c-Src kinase (human) worked out at 26%; against Lyn kinase (human) it was 55%.
For the compound `COc1cc(N2C(=O)Nc3c(C(=O)N4CCCC4)sc4ncnc2c34)c(Cl)cc1Cl` [Cpd 46, 5-(2,4-dichloro-5-methoxy-phenyl)-2-(pyrrolidine-1-carbonyl)3H,5H-1-thia-3,5,6,8-tetraaza-acenaphthylen-4-one], the inhibition at 2 µM at EGFR came out at 1%; at c-Src kinase (human), 30%; against Lyn kinase (human) it was 40%. In addition, the inhibition at 1 µM on HER-2 is 0%.
For `O=C(Nc1ccc(CN2CCCCC2)cc1)c1sc2ncnc3c2c1NC(=O)N3c1cc(OCc2cccc(F)c2)c(Cl)cc1Cl` [Cpd 57, 5-[2,4-dichloro-5-(3-fluoro-benzyloxy)-phenyl]-4-oxo-4,5-dihydro-3H-1-thia-3,5,6,8-tetraaza-acenaphthylene-2-carboxylic acid (4-piperidin-1-ylmethyl-phenyl)-amide], in that order: 12%, -16%, 1% and -20%.
As to `C[C@H](c1ccccc1)N1C(=O)Nc2c(C(=O)NC3CCN(C)CC3)sc3ncnc1c23` [Cpd 173, 4-oxo-5-[(1R)-1-phenyl-ethyl]-4,5-dihydro-3H-1-thia-3,5,6,8-tetraaza-acenaphthylene-2-carboxylic acid (1-methyl-piperidin-4-yl)-amide], the inhibition at 2 µM is -3% on EGFR, -8% against c-Src kinase (human) and -5% against Lyn kinase (human). In addition, on HER-2, the IC50 was more than 100000 nM.
Consider `O=C(Nc1ccc(CN2CCCCC2)cc1)c1sc2ncnc3c2c1NC(=O)N3c1ccc(Oc2ccccc2)c(Cl)c1` [Cpd 135, 5-(3-chloro-4-phenoxy-phenyl)-4-oxo-4,5-dihydro-3H-1-thia-3,5,6,8-tetraaza-acenaphthylene-2-carboxylic acid (4-piperidin-1-ylmethyl-phenyl)-amide], for which the IC50 was 18 nM against EGFR and 90 nM at HER-2. Further, the inhibition at 2 µM was 12% against c-Src kinase (human) and 46% against Lyn kinase (human). Further, the inhibition at 1 µM on HER-2 stood at 85%.
Turning to `Cc1cccc(Cl)c1N1C(=O)Nc2c(C(=O)Nc3ccc(CN4CCCCC4)cc3)sc3ncnc1c23` [Cpd 147, 5-(2-chloro-6-methyl-phenyl)-4-oxo-4,5-dihydro-3H-1-thia-3,5,6,8-tetraaza-acenaphthylene-2-carboxylic acid (4-piperidin-1-ylmethyl-phenyl)-amide], the inhibition at 2 µM on EGFR turned out to be 43%; against c-Src kinase (human), 61%; against Lyn kinase (human), 76%. Also, the inhibition at 1 µM against HER-2 turned out to be 17%.
As for `Cc1ccc(Oc2ccc(N3C(=O)Nc4c(C(=O)Nc5ccc(CN6CCOCC6)cc5)sc5ncnc3c45)cc2C)cn1` [Cpd 119, 5-[3-methyl-4-(6-methyl-pyridin-3-yloxy)-phenyl]-4-oxo-4,5-dihydro-3H-1-thia-3,5,6,8-tetraaza-acenaphthylene-2-carboxylic acid (4-morpholin-4-ylmethyl-phenyl)-amide], the IC50 against EGFR came out at 1800 nM; on HER-2 it was 1090 nM. For the same compound, the inhibition at 2 µM at c-Src kinase (human) is -17%; on Lyn kinase (human) it was -47%.
Turning to `O=C(Nc1ccc(CN2CCCC2)cc1)c1sc2ncnc3c2c1NC(=O)N3c1cc(OCc2cccc(F)c2)c(Cl)cc1Cl` [Cpd 55, 5-[2,4-dichloro-5-(3-fluoro-benzyloxy)-phenyl]-4-oxo-4,5-dihydro-3H-1-thia-3,5,6,8-tetraaza-acenaphthylene-2-carboxylic acid (4-pyrrolidin-1-ylmethyl-phenyl)-amide], the inhibition at 2 µM at EGFR was 14%; against c-Src kinase (human), -16%; against Lyn kinase (human) it was 3%. Also, the inhibition at 1 µM at HER-2 was -22%.

The IC50 is the concentration that gives 50% inhibition. What is called inhibition is the change of the read-out against control, counted positive when it falls.
